From patent publication US12116388B2, “Amylin receptor agonists” (Novo Nordisk A/S, priority 2022, dated 2024)
Starred links: 1 amine or outer side, 2 acyl side, 3 side chain; linkers in the order of their positions; H or OH if unused. Residues, ends and D or L forms follow the SMILES beside them. *: point of attachment. C20 diacid = O=C(O)CCCCCCCCCCCCCCCCCCC(=O)*; C18 diacid = O=C(O)CCCCCCCCCCCCCCCCC(=O)*; γGlu = O=C(O)[C@H](CCC(=O)[*:2])N[*:1]

Legend:
[1] = biological target: T1, human amylin receptor (hAMYR3) (Homo sapiens, UniProt O60896+P30988); test: Human amylin receptor (hAMYR3) in vitro potency assay, CRE-luciferase reporter in BHK cells; format: cell-based; details: BHK hAMYR3/CRE-Luc cells, 3 hours incubation, assay buffer with 1% ovalbumin
T1 construct: host or cells: BHK (Baby Hamster Kidney), Hollex-1 cell line further transfected with RAMP3
Outline: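 BHK cells stably expressing human calcitonin receptor (a) plus RAMP3 and a CRE-luciferase reporter, seeded overnight, then exposed to 7-point 7-fold dilutions (often from ~10 nM) in DMEM/HEPES buffer with 1% ovalbumin for 3 h at 37 °C. Luciferase luminescence read after SteadyLite Plus addition.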

[2] = biological target: T2, human calcitonin receptor (hCTR) (Homo sapiens, UniProt P30988); test: Human calcitonin receptor (hCTR) in vitro potency assay, CRE-luciferase reporter in BHK cells; format: cell-based; details: BHK hCTR/CRE-Luc cells, 3 hours incubation, assay buffer with 1% ovalbumin; read-out: hCalcR potency, EC50
T2 construct: host or cells: BHK (Baby Hamster Kidney), Hollex-1 cell line
T2 sequence (P30988 25-474): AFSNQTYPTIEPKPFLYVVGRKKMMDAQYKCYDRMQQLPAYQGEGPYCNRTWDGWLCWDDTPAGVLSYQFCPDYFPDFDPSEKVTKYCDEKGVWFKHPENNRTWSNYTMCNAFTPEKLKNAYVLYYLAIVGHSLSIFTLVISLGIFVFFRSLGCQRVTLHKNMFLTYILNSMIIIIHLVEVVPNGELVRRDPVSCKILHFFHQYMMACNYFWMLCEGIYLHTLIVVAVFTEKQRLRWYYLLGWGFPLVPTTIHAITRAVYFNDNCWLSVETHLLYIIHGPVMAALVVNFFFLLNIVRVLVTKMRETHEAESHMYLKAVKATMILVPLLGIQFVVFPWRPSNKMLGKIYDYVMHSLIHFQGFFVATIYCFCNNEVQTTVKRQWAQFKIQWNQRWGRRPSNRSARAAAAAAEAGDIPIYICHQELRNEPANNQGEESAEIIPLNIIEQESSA
Outline: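 BHK cells stably co-expressing human calcitonin receptor and a CRE-luciferase reporter, seeded the day before, were exposed to 7-fold serial dilutions (7 concentrations, often starting near 10 nM) in DMEM/HEPES/1% ovalbumin buffer for 3 h at 37 °C. Luminescence was then read after SteadyLite Plus addition.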

T1 sequence (O60896 24-148, one chain of several): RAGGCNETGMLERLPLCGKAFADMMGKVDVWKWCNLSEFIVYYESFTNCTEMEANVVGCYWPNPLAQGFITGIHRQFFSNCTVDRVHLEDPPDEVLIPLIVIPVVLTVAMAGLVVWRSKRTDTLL

| Compound | EC50 [1] | EC50 [2] |
| --- | --- | --- |
| CC[C@H](C)[C@H](NC(=O)[C@H](C)NC(=O)CNC(=O)[C@H](Cc1ccccc1)NC(=O)[C@@H]1CCCN1C(=O)[C@H](CC(=O)O)NC(=O)[C@H](CO)NC(=O)[C@H](CO)NC(=O)[C@H](Cc1c[nH]cn1)NC(=O)[C@H](Cc1c[nH]cn1)NC(=O)[C@H](CC(C)C)NC(=O)[C@H](Cc1ccccc1)NC(=O)[C@H](CCC(=O)O)NC(=O)[C@H](C)NC(=O)[C@H](CC(C)C)NC(=O)[C@H](CCCNC(=N)N)NC(=O)[C@H](C)NC(=O)[C@@H](NC(=O)[C@H](CCC(N)=O)NC(=O)[C@H](C)NC(=O)[C@@H](NC(=O)[C@H](CO)NC(=O)[C@H](CC(C)C)NC(=O)[C@H](Cc1c[nH]cn1)NC(=O)[C@H](CO)NC(=O)[C@H](C)NC(=O)CC[C@H](NC(=O)CCCCCCCCCCCCCCCCCCC(=O)O)C(=O)O)[C@@H](C)O)[C@@H](C)O)C(=O)N1CCC[C@H]1C(=O)N[C@@H](CO)C(=O)N[C@@H](CO)C(=O)N[C@H](C(=O)N[C@@H](CC(=O)O)C(=O)N[C@H](C(=O)NCC(=O)N1CCC[C@H]1C(=O)N[C@@H](CC(=O)O)C(=O)N[C@H](C(=O)N1CCC[C@H]1C(N)=O)[C@@H](C)O)C(C)C)[C@@H](C)O [Compound 39, N^1-[(4S)-4-carboxy-4-(19-carboxynonadecanoylamino)butanoyl]-[Ala1,Ser2,His3,Leu4,Ser5,Ala7,Gln8,Ala10,Glu14,His17,Asp21,Pro22,Pro27,Asp31,Pro34,Asp35,Pro37]-human amylin] ({C20 diacid-γGlu}-ASHLSTAQTARLAEFLHHSSDPFGAIPSSTDVGPDTP-NH2) | 1.05 pM | 1.41 pM |
| CC[C@H](C)[C@H](NC(=O)[C@@H]1CCCN1C(=O)CNC(=O)[C@H](Cc1ccccc1)NC(=O)[C@H](Cc1c[nH]cn1)NC(=O)[C@H](Cc1c[nH]cn1)NC(=O)[C@H](CC(C)C)NC(=O)[C@H](Cc1ccccc1)NC(=O)[C@H](CCC(=O)O)NC(=O)[C@H](C)NC(=O)[C@H](CC(C)C)NC(=O)[C@H](CCCNC(=N)N)NC(=O)[C@H](CCC(N)=O)NC(=O)[C@@H](NC(=O)[C@H](CCC(N)=O)NC(=O)[C@H](CC(C)C)NC(=O)[C@@H](NC(=O)[C@H](CO)NC(=O)[C@H](CC(C)C)NC(=O)[C@H](Cc1c[nH]cn1)NC(=O)[C@H](CO)NC(=O)[C@H](C)NC(=O)CC[C@H](NC(=O)CCCCCCCCCCCCCCCCC(=O)O)C(=O)O)[C@@H](C)O)[C@@H](C)O)C(=O)N[C@@H](CC(C)C)C(=O)N1CCC[C@H]1C(=O)N1CCC[C@H]1C(=O)N[C@H](C(=O)N[C@@H](CC(=O)O)C(=O)N[C@H](C(=O)NCC(=O)N[C@@H](CO)C(=O)N[C@@H](CCC(=O)O)C(=O)N[C@H](C(=O)N1CCC[C@H]1C(N)=O)[C@@H](C)O)C(C)C)[C@@H](C)O [Compound 35, N^1-[(4S)-4-carboxy-4-(17-carboxyheptadecanoylamino)butanoyl]-[Ala1,Ser2,His3,Leu4,Ser5,Leu7,Gln8,Glu14,His17,Pro25,Pro28,Pro29,Asp31,Glu35,Pro37],des-(19-22)-human amylin] ({C18 diacid-γGlu}-ASHLSTLQTQRLAEFLHHFGPILPPTDVGSETP-NH2) | 1.6 pM | 2.26 pM |
| CC[C@H](C)[C@H](NC(=O)[C@H](C)NC(=O)CNC(=O)[C@H](Cc1ccccc1)NC(=O)[C@@H]1CCCN1C(=O)[C@H](CC(=O)O)NC(=O)[C@H](CO)NC(=O)[C@H](CO)NC(=O)[C@H](Cc1c[nH]cn1)NC(=O)[C@H](Cc1c[nH]cn1)NC(=O)[C@H](CC(C)C)NC(=O)[C@H](Cc1ccccc1)NC(=O)[C@H](CCC(=O)O)NC(=O)[C@H](C)NC(=O)[C@H](CC(C)C)NC(=O)[C@H](CCCNC(=N)N)NC(=O)[C@H](CCC(N)=O)NC(=O)[C@@H](NC(=O)[C@H](CCC(N)=O)NC(=O)[C@H](C)NC(=O)[C@@H](NC(=O)[C@H](CO)NC(=O)[C@H](CC(C)C)NC(=O)[C@H](Cc1c[nH]cn1)NC(=O)CNC(=O)[C@H](C)NC(=O)CC[C@H](NC(=O)CCCCCCCCCCCCCCCCCCC(=O)O)C(=O)O)[C@@H](C)O)[C@@H](C)O)C(=O)N1CCC[C@H]1C(=O)N[C@@H](CO)C(=O)N[C@@H](CO)C(=O)N[C@H](C(=O)N[C@@H](CC(=O)O)C(=O)N[C@H](C(=O)NCC(=O)N1CCC[C@H]1C(=O)N[C@@H](CC(=O)O)C(=O)N[C@H](C(=O)N1CCC[C@H]1C(N)=O)[C@@H](C)O)C(C)C)[C@@H](C)O [Compound 7, N^1-[(4S)-4-carboxy-4-(19-carboxynonadecanoylamino)butanoyl]-[Ala1,Gly2,His3,Leu4,Ser5,Ala7,Gln8,Glu14,His17,Asp21,Pro22,Pro27,Asp31,Pro34,Asp35,Pro37]-human amylin] ({C20 diacid-γGlu}-AGHLSTAQTQRLAEFLHHSSDPFGAIPSSTDVGPDTP-NH2) | 1.68 pM | 1.81 pM |
